PubChem BioAssay (NCI)
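Cells were grown in 96-well plates and exposed to each compound for 48 hours at five concentrations; endpoints were interpolated linearly between bracketing concentrations, or set to the highest concentration if not reached. Abbreviation: GI50, concentration required for 50% inhibition of growth. TGI denotes the concentration required for complete inhibition of growth.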

Key:
Assay in all cases: DTP human tumour cell line panel, 48 h
786-0 renal = system: 786-0 renal
A498 renal = system: A498 renal
A549 NSCLC = system: A549 NSCLC
ACHN renal = system: ACHN renal
BT-549 breast = system: BT-549 breast
CAKI-1 renal = system: CAKI-1 renal
CCRF-CEM leukemia = system: CCRF-CEM leukemia
COLO 205 colon = system: COLO 205 colon
DU-145 prostate = system: DU-145 prostate
EKVX NSCLC = system: EKVX NSCLC
HCC-2998 colon = system: HCC-2998 colon
HCT-116 colon = system: HCT-116 colon
HCT-15 colon = system: HCT-15 colon
HL-60(TB) leukemia = system: HL-60(TB) leukemia
HOP-62 NSCLC = system: HOP-62 NSCLC
HOP-92 NSCLC = system: HOP-92 NSCLC
HS 578T breast = system: HS 578T breast
HT29 colon = system: HT29 colon
IGROV1 ovarian = system: IGROV1 ovarian
K-562 leukemia = system: K-562 leukemia
KM12 colon = system: KM12 colon
LOX IMVI melanoma = system: LOX IMVI melanoma
M14 melanoma = system: M14 melanoma
MALME-3M melanoma = system: MALME-3M melanoma
MCF7 breast = system: MCF7 breast
MDA-MB-231 breast = system: MDA-MB-231 breast
MDA-MB-435 = system: MDA-MB-435
MDA-MB-468 breast = system: MDA-MB-468 breast
MOLT-4 leukemia = system: MOLT-4 leukemia
NCI-H226 lung = system: NCI-H226 lung
NCI-H23 lung = system: NCI-H23 lung
NCI-H460 lung = system: NCI-H460 lung
NCI-H522 lung = system: NCI-H522 lung
OVCAR-3 ovarian = system: OVCAR-3 ovarian
OVCAR-4 ovarian = system: OVCAR-4 ovarian
OVCAR-5 ovarian = system: OVCAR-5 ovarian
OVCAR-8 ovarian = system: OVCAR-8 ovarian
PC-3 prostate = system: PC-3 prostate
RPMI-8226 leukemia = system: RPMI-8226 leukemia
RXF 393 renal = system: RXF 393 renal
SF-268 CNS = system: SF-268 CNS
SF-295 CNS = system: SF-295 CNS
SF-539 CNS = system: SF-539 CNS
SK-MEL-2 melanoma = system: SK-MEL-2 melanoma
SK-MEL-28 melanoma = system: SK-MEL-28 melanoma
SK-MEL-5 melanoma = system: SK-MEL-5 melanoma
SK-OV-3 ovarian = system: SK-OV-3 ovarian
SN12C renal = system: SN12C renal
SNB-19 CNS = system: SNB-19 CNS
SNB-75 CNS = system: SNB-75 CNS
SR leukemia = system: SR leukemia
SW-620 colon = system: SW-620 colon
T-47D breast = system: T-47D breast
TK-10 renal = system: TK-10 renal
U251 CNS = system: U251 CNS
UACC-257 melanoma = system: UACC-257 melanoma
UACC-62 melanoma = system: UACC-62 melanoma
UO-31 renal = system: UO-31 renal

COc1cc(CNC(=O)/C=C/c2ccc3c(c2)OCO3)ccc1OCc1cn(-c2cccc(C(F)(F)F)c2)nn1
GI50 (786-0 renal): 6.2 µM | TGI (786-0 renal): 19.2 µM | GI50 (A498 renal): 5.32 µM | TGI (A498 renal): 19.1 µM | GI50 (A549 NSCLC): 3.71 µM | TGI (A549 NSCLC): 15.9 µM | GI50 (ACHN renal): 5.24 µM | TGI (ACHN renal): 18.5 µM | GI50 (BT-549 breast): 4.83 µM | TGI (BT-549 breast): 19.3 µM | GI50 (CAKI-1 renal): 5.39 µM | TGI (CAKI-1 renal): 18.5 µM | GI50 (CCRF-CEM leukemia): 32.1 µM | TGI (CCRF-CEM leukemia): > 100 µM | GI50 (COLO 205 colon): 10.4 µM | TGI (COLO 205 colon): 25 µM | GI50 (DU-145 prostate): 10.7 µM | TGI (DU-145 prostate): 28.4 µM | GI50 (EKVX NSCLC): 13.1 µM | TGI (EKVX NSCLC): 29.5 µM | GI50 (HCC-2998 colon): 10.1 µM | TGI (HCC-2998 colon): 23.7 µM | GI50 (HCT-116 colon): 3.83 µM | TGI (HCT-116 colon): 14.9 µM | GI50 (HCT-15 colon): 5.19 µM | TGI (HCT-15 colon): 26.6 µM | GI50 (HL-60(TB) leukemia): 23.6 µM | TGI (HL-60(TB) leukemia): > 100 µM | GI50 (HOP-62 NSCLC): 7.29 µM | TGI (HOP-62 NSCLC): 26 µM | GI50 (HOP-92 NSCLC): 2.61 µM | TGI (HOP-92 NSCLC): 8.28 µM | GI50 (HS 578T breast): 4.39 µM | TGI (HS 578T breast): 24.8 µM | GI50 (HT29 colon): 14.9 µM | TGI (HT29 colon): 36.1 µM | GI50 (IGROV1 ovarian): 15.3 µM | TGI (IGROV1 ovarian): 32.7 µM | GI50 (K-562 leukemia): 17.5 µM | TGI (K-562 leukemia): > 100 µM | GI50 (KM12 colon): 15.5 µM | TGI (KM12 colon): 43 µM | GI50 (LOX IMVI melanoma): 4.75 µM | TGI (LOX IMVI melanoma): 19 µM | GI50 (M14 melanoma): 10.4 µM | TGI (M14 melanoma): 23.3 µM | GI50 (MALME-3M melanoma): 2.44 µM | TGI (MALME-3M melanoma): 9.61 µM | GI50 (MCF7 breast): 4.23 µM | TGI (MCF7 breast): 22 µM | GI50 (MDA-MB-231 breast): 4.58 µM | TGI (MDA-MB-231 breast): 17.1 µM | GI50 (MDA-MB-435): 8.25 µM | TGI (MDA-MB-435): 23.2 µM | GI50 (MDA-MB-468 breast): 10 µM | TGI (MDA-MB-468 breast): 22.8 µM | GI50 (MOLT-4 leukemia): 10.1 µM | TGI (MOLT-4 leukemia): > 100 µM | GI50 (NCI-H226 lung): 3.38 µM | TGI (NCI-H226 lung): 14.7 µM | GI50 (NCI-H23 lung): 10.5 µM | TGI (NCI-H23 lung): 23.9 µM | GI50 (NCI-H460 lung): 3.28 µM | TGI (NCI-H460 lung): 11.6 µM | GI50 (NCI-H522 lung): 9.78 µM | TGI (NCI-H522 lung): 23.7 µM | GI50 (OVCAR-3 ovarian): 3.31 µM | TGI (OVCAR-3 ovarian): 11.6 µM | GI50 (OVCAR-4 ovarian): 2.9 µM | TGI (OVCAR-4 ovarian): 10.3 µM | GI50 (OVCAR-5 ovarian): 14.5 µM | TGI (OVCAR-5 ovarian): 31.8 µM | GI50 (OVCAR-8 ovarian): 3.91 µM | TGI (OVCAR-8 ovarian): 15.4 µM | GI50 (PC-3 prostate): 13.4 µM | TGI (PC-3 prostate): 29.3 µM | GI50 (RPMI-8226 leukemia): 18.5 µM | TGI (RPMI-8226 leukemia): > 100 µM | GI50 (RXF 393 renal): 2.93 µM | TGI (RXF 393 renal): 9.87 µM | GI50 (SF-268 CNS): 12 µM | TGI (SF-268 CNS): 34.8 µM | GI50 (SF-295 CNS): 4.84 µM | TGI (SF-295 CNS): 17.8 µM | GI50 (SF-539 CNS): 3.54 µM | TGI (SF-539 CNS): 12.7 µM | GI50 (SK-MEL-2 melanoma): 10.1 µM | TGI (SK-MEL-2 melanoma): 22.8 µM | GI50 (SK-MEL-28 melanoma): 8.84 µM | TGI (SK-MEL-28 melanoma): 21.7 µM | GI50 (SK-MEL-5 melanoma): 4.68 µM | TGI (SK-MEL-5 melanoma): 16.4 µM | GI50 (SK-OV-3 ovarian): 16.3 µM | TGI (SK-OV-3 ovarian): 36.5 µM | GI50 (SN12C renal): 9.04 µM | TGI (SN12C renal): 27.6 µM | GI50 (SNB-19 CNS): 13.2 µM | TGI (SNB-19 CNS): 27.9 µM | GI50 (SNB-75 CNS): 1.62 µM | TGI (SNB-75 CNS): 5.37 µM | GI50 (SR leukemia): 21.3 µM | TGI (SR leukemia): > 100 µM | GI50 (SW-620 colon): 5.86 µM | TGI (SW-620 colon): 22.5 µM | GI50 (T-47D breast): 3.27 µM | TGI (T-47D breast): 26.6 µM | GI50 (TK-10 renal): 13.5 µM | TGI (TK-10 renal): 32.2 µM | GI50 (U251 CNS): 4.5 µM | TGI (U251 CNS): 17.6 µM | GI50 (UACC-257 melanoma): 10.8 µM | TGI (UACC-257 melanoma): 25.4 µM | GI50 (UACC-62 melanoma): 11 µM | TGI (UACC-62 melanoma): 23.4 µM | GI50 (UO-31 renal): 2.6 µM | TGI (UO-31 renal): 10.1 µM
